How the values were obtained:
Assay type in all cases: cell-based
[1] = tested on: Staphylococcus aureus (ATCC #6538); assay: Minimum Inhibitory Concentration (MIC), autodilutor, nutrient broth, 96 well plates (Example 8); settings: Staphylococcus aureus, ATCC6538; 72 hours at 32 degree Celsius, approximately 10^6 cfu/g, visual turbidity; read-out: MIC for S. Aureus
Protocol: The Minimum Inhibitory Concentration (MIC) of the preservative mixtures was tested. The MIC is the lowest concentration of an ingredient that will inhibit the growth of an organism. This study was conducted using the Hamilton Micro Lab AT Plus Autodilutor Liquid handling System. The programs for the auto-dilutor were based on Lonza's Standard Application Method SAPM#412-01-1. The Hamilton Autodilutor was used to dilute the starting concentrations of the preservative combination by 50% using nutrient broth in 96 well micro titer plates and also to inoculate the microorganism in the test samples. This preservatives tested were Isocil™ (a blend of methyl isothiazolinone and methyl-chloro-isothiazolinone), Benzocil™ (benzisothiazolinone) and Lonzagard™ (benzethonium chloride), all of which are available from Lonza Inc. of Fair Lawn, N.J., in various concentrations and combinations with cinnamaldehyde. Controls were also included in each test plate. […] Results were determined by checking for growth in the test samples versus the control wells on each plate (visual determination of turbidity in the wells). […] Synergism values for the Isocil™/cinnamaldehyde and Benzocil™/cinnamaldehyde combinations were calculated from the MIC values reported in Table 11 by the method described in Kull, supra, referred to above, and are set forth in Tables 12 and 13, below.

[2] = tested on: fungi; assay: Fungal plate count of preserved GMS cream (Example 6)
Protocol: Each cream sample in Table 5 below was tested by the procedure described in Example 1. A glyceryl monostearate (GMS) cream as described in Table 3 below was prepared as follows. The polyoxyethylene glyceryl monostearate, glyceryl monostearate, cetearyl alcohol, and myristyl propionate were mixed and heated to 60 EC in a first container. The glycerin and sterile deionized water were mixed and heated to 60 EC in a second container. The solution in the first container was poured into the second container. The second container was maintained at 60 EC for 10 minutes. The solution in the second container was allowed to cool. The pH of the solution was adjusted to pH 7 with sodium hydroxide to yield the GMS cream. The cream samples shown in Table 7 below were prepared by mixing the appropriate amounts of the preservatives and the GMS cream and heating the mixture to 50 EC for 10-15 minutes.

[3] = tested on: S. aureus (ATCC #6538), P. aeruginosa (ATCC #9027), and E. coli (ATCC #8739); assay: Mixed bacterial challenge of preserved anionic protein shampoo (Examples 4 and 7); settings: for Qb: concentration alone required for 100% retardation of the bacteria
Protocol: Each anionic shampoo sample in Table 3 below was tested as follows. A standardized mixed bacterial solution was prepared according to the following procedure. 3 agar stabs of S. aureus (ATCC #6538), P. aeruginosa (ATCC #9027), and E. coli (ATCC #8739) were separately incubated at about 35 EC for about 24 hours. Each stab was then washed with 3 mL of sterile 0.85% saline solution. The washes of the 3 stabs were pooled together to form an organism mixture. The absorbance of the organism mixture at 530 nm was adjusted to about 1.00 by adding saline. The spectrometer was calibrated with a saline blank. A 5 mL aliquot of the organism mixture was mixed together to produce the standardized mixed bacterial solution. Then, 40 g of each shampoo sample was inoculated with 0.2 mL of the standardized mixed bacterial solution and mixed. 1 g of the mixture was added to a sterile 20×150 mm screw cap test tube.
9 mL of sterile D/E neutralizer broth was added to the test tube and mixed to form a 10^−1 dilution. Serial dilutions were prepared through to a 10^−6 dilution with phosphate buffered water. The serial dilutions were plated onto Tryptic Soy Agar and incubated for 2 days at about 35 EC. Bacteria counts were performed after 0, 7, and 14 days.
The anionic protein shampoo composition was comprised of 35% by weight of sodium lauryl ether sulfate; 25% by weight of triethanolamine lauryl sulfate; 3% by weight coconut diethanolamide (cocamide DEA); 1% by weight of hydrolyzed collagen, available as Polypro 5000™ from Hormel Foods of Austin, Minn.; and 36% by weight of deionized water.
The cinnamaldehyde and other preservative containing samples were prepared by mixing the appropriate amounts of the preservatives and the aforementioned anionic protein shampoo composition and heating the mixture to about 50 EC for about 15 minutes.
Synergism for the cinnamaldehyde/Glydant 2000™ solutions in Table 8 against S. aureus, P. aeruginosa, and E. coli was calculated by the method described in C. E. Kull et al., A Mixtures of Quaternary Ammonium Compounds and Long-chain Fatty Acids as Antifungal Agents@, Applied Microbiology, 9:538-541 (1961). The synergism value (QA/Qa+QB/Qb) in Table 7 was determined. […] Qa is the concentration of cinnamaldehyde alone (in percent by weight) required to yield 100% retardation of the bacteria. QB is the concentration of Glydant 2000™ (in percent by weight) in the mixture, which yielded 100% retardation of the bacteria. Qb is the concentration of Glydant 2000™ alone (in percent by weight) required to yield 100% retardation of the bacteria.
When the value of (QA/Qa+QB/Qb) is less than one, the mixture is synergistic. Values for (QA/Qa+QB/Qb) of 1 and greater than 1, represent an additive effect and an antagonistic effect, respectively.

SMILES: O=CC=Cc1ccccc1 [Cinnamaldehyde, cinnamaldehyde]
- MIC [1]: 125 µg/mL
- Fungal Plate Count Day 0 ([2]; 0.10% in GMS cream): 1.0 × 10^5 cfu/g
- Fungal Plate Count Day 7 ([2]; 0.10% in GMS cream): <10 cfu/g
- Fungal Plate Count Day 14 ([2]; 0.10% in GMS cream): <10 cfu/g
- Fungal Plate Count Day 0 ([2]; 0.25% in GMS cream): 1.0 × 10^5 cfu/g
- Fungal Plate Count Day 7 ([2]; 0.25% in GMS cream): <10 cfu/g
- Fungal Plate Count Day 14 ([2]; 0.25% in GMS cream): <10 cfu/g
- S. aureus, P. aeruginosa, and E. coli Day 0 ([3]; 0.05% in shampoo, Day 0, Example 7 Table 8): 3.0 × 10^6 cfu/g
- S. aureus, P. aeruginosa, and E. coli Day 7 ([3]; 0.05% in shampoo, Day 7, Example 7 Table 8): 6.5 × 10^6 cfu/g
- S. aureus, P. aeruginosa, and E. coli Day 14 ([3]; 0.05% in shampoo, Day 14, Example 7 Table 8): 1.0 × 10^7 cfu/g
- S. aureus, P. aeruginosa, and E. coli Day 0 ([3]; 0.10% by weight in shampoo, Day 0, Table 3): 3.0 × 10^7 cfu/g
- S. aureus, P. aeruginosa, and E. coli Day 7 ([3]; 0.10% by weight in shampoo, Day 7, Table 3): 1.0 × 10^1 cfu/g
- S. aureus, P. aeruginosa, and E. coli Day 14 ([3]; 0.10% by weight in shampoo, Day 14, Table 3): <10 cfu/g
- S. aureus, P. aeruginosa, and E. coli Day 0 ([3]; 0.10% in shampoo, Day 0, Example 7 Table 8): 3.0 × 10^6 cfu/g
- S. aureus, P. aeruginosa, and E. coli Day 7 ([3]; 0.10% in shampoo, Day 7, Example 7 Table 8): 1.0 × 10^1 cfu/g
- S. aureus, P. aeruginosa, and E. coli Day 14 ([3]; 0.10% in shampoo, Day 14, Example 7 Table 8): <10 cfu/g
- S. aureus, P. aeruginosa, and E. coli Day 0 ([3]; 0.20% by weight in shampoo, Day 0, Table 3): 3.0 × 10^7 cfu/g
- S. aureus, P. aeruginosa, and E. coli Day 7 ([3]; 0.20% by weight in shampoo, Day 7, Table 3): <10 cfu/g
- S. aureus, P. aeruginosa, and E. coli Day 14 ([3]; 0.20% by weight in shampoo, Day 14, Table 3): <10 cfu/g
- S. aureus, P. aeruginosa, and E. coli Day 0 ([3]; 0.25% by weight in shampoo, Day 0, Table 3): 3.0 × 10^7 cfu/g
- S. aureus, P. aeruginosa, and E. coli Day 7 ([3]; 0.25% by weight in shampoo, Day 7, Table 3): <10 cfu/g
- S. aureus, P. aeruginosa, and E. coli Day 14 ([3]; 0.25% by weight in shampoo, Day 14, Table 3): <10 cfu/g
- Qb ([3]; For Day 7): 0.1%
- Qb ([3]; For Day 14): 0.05%
